Laboratory results: patent US11618747B2, “LXR modulators with bicyclic core moiety” (OrsoBio, Inc., priority 2018, dated 2023)

Columns and labels:
[1] = target: T1, LXRβ ligand-binding domain (Homo sapiens, UniProt P55055, DUP175-175); test: TR-FRETβ activity assay (NCoA3 coactivator peptide recruitment); assay type: biochemical; settings: TR-FRET, 1 μM 24(S)-25-epoxycholesterol prestimulation; read-out: FRETβ (EC50 range)
T1 construct: amino acids 156-461; NP009052; made in house; host or cells: E. coli
T1 sequence (P55055 with tags, fused parts or gaps DUP175-175 limits assumed): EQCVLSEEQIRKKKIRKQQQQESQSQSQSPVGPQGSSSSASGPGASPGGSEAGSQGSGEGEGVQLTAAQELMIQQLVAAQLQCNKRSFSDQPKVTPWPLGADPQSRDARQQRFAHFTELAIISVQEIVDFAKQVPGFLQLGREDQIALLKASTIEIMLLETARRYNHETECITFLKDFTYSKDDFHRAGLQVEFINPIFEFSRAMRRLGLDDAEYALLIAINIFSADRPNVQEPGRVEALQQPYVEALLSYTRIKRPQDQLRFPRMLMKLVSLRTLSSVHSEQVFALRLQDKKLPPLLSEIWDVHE
Outline: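 GST-tagged human LXRβ LBD (aa 156-461, E. coli) at 76 nM with 400 nM biotinylated NCoA3 peptide in Tris/HCl pH 6.8, 240 mM KCl, BSA, 0.002% Triton-X-100, plus 1 μM 24(S)-25-epoxycholesterol as prestimulating agonist. Compounds at 50 μM down to 0.002 μM, 1 h at 4 °C. Coactivator recruitment by TR-FRET (Tb cryptate/XL665, 615/665 nm), triplicates.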

[2] = target: T2, ligand-binding domain (LBD) of LXRα (Homo sapiens, UniProt Q13133); test: LXR Gal4 reporter transient transfection assay (LBD-M2H Gal4α); assay type: cell-based; settings: HEK293 cells, LXRα LBD; read-out: LBD-M2H Gal4α (EC50 range)
T2 construct: expressed in transfected cells; host or cells: HEK293
T2 sequence (Q13133 155-447): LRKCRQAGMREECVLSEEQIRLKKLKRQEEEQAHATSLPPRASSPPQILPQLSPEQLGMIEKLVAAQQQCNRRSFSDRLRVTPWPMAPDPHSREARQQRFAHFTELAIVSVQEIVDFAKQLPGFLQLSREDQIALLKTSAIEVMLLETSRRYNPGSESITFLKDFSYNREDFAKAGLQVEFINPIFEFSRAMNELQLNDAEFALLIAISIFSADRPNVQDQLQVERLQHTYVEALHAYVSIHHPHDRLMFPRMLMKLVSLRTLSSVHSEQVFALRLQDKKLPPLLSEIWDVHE
Protocol: (§1) The tested compounds were usually dissolved, tested and stored as 20 mM stock solutions in DMSO. Since sulfonyl acetic acid derivatives tend to decarboxylate under these conditions, these stock solutions were prepared, tested and stored as 20 mM DMSO stock solutions containing 100 mM trifluoroacetic Acid (5 equivalents). Sulfonyl acetic acid derivatives are shelf stable as solid at rt for long time as reported by Griesbrecht et al. (Synlett 2010:374) or Faucher et al. (J. Med. Chem. 2004; 47:18).
(§2) LXR Gal4 Reporter Transient Transfection Assays
(§3) LXRα and LXRβ activity status was determined via detection of interaction with coactivator and corepressor proteins in mammalian two-hybrid experiments (M2H). For this, via transient transfection the full length (FL) proteins of LXRα (amino acids 1-447; NP005684; SEQ ID NO:1) or LXRβ-(amino acids 1-461; NP009052; SEQ ID NO:2) or the ligand-binding domains (LBD) of LXRα (amino acids 155-447 SEQ ID NO:3) or LXRβ (amino acids 156-461; SEQ ID NO:4) were expressed from pCMV-AD (Stratagene) as fusions to the transcriptional activation domain of NFkB. As cofactors, domains of either the steroid receptor coactivator 1 (SRC1; amino acids 552-887; SEQ ID NO:5) or of the corepressor NCoR (amino acids 1906-2312; NP006302; SEQ ID NO:6) were expressed as fusions to the DNA binding domain of the yeast transcription factor GAL4 (from pCMV-BD; Stratagene). Interaction was monitored via activation of a coexpressed Firefly Luciferase Reporter gene under control of a promoter containing repetitive GAL4 response elements (vector pFRLuc; Stratagene). Transfection efficiency was controlled via cotransfection of constitutively active pRL-CMV Renila reniformis luciferase reporter (Promega). HEK293 cells were grown in minimum essential medium (MEM) with 2 mM L-glutamine and Earle's balanced salt solution supplemented with 8.3% fetal bovine serum, 0.1 mM non-essential amino acids, 1 mM sodium pyruvate, at 37° C. in 5% CO2. 3.5×10^4 cells/well were plated in 96-well cell culture plates in growth medium supplemented with 8.3% fetal bovine serum for 16-20 h to ˜90% confluency. For transfection, medium was taken off and LXR and cofactor expressing plasmids as well as the reporter plasmids are added in 30 μL OPTIMEM/well including polyethylene-imine (PEI) as vehicle. Typical amounts of plasmids transfected/well: pCMV-AD-LXR (5 ng), pCMV-BD-cofactor (5 ng), pFR-Luc (100 ng), pRL-CMV (0.5 ng). Compound stocks were prepared in DMSO, prediluted in MEM to a total volume of 120 μL, and added 4 h after addition of the transfection mixture (final vehicle concentration not exceeding 0.2%). Cells were incubated for additional 16 h, lysed for 10 min in 1× Passive Lysis Buffer (Promega) and Firefly and Renilla luciferase activities were measured sequentially in the same cell extract using buffers containing D-luciferine and coelenterazine, respectively. Measurements of luminescence were done in a BMG-luminometer.

[3] = target: T3, ligand-binding domain (LBD) of LXRβ (Homo sapiens, UniProt P55055, DUP175-175); test: LXR Gal4 reporter transient transfection assay (LBD-M2H Gal4β); assay type: cell-based; settings: HEK293 cells, LXRβ LBD; read-out: LBD-M2H Gal4β (EC50 range)
T3 construct: LXRβ (amino acids 156-461); expressed in transfected cells; host or cells: HEK293
T3 sequence (P55055 with tags, fused parts or gaps DUP175-175 limits assumed): T1 sequence (P55055 with tags, fused parts or gaps DUP175-175 limits assumed)
Protocol: as §1, §2, §3

Row | SMILES | EC50 [1] [nM] | EC50 [2] [nM] | EC50 [3] [nM]
1 | Cc1ccc(S(=O)(=O)n2c(-c3ccsc3)c(-c3ccsc3C#N)c3ccccc32)cc1 [1/23] | 100 to 1000 | < 100 | < 100
2 | Cc1cc(C)c(S(=O)(=O)n2c(-c3cccs3)c(-c3ccsc3C#N)c3ccccc32)c(C)c1 [1/26] | 1000 to 10000 | 100 to 1000 | < 100
3 | N#Cc1sccc1-c1c(-c2cccs2)n(S(=O)(=O)c2cccc3ccccc23)c2ccccc12 [1/27] | 1000 to 10000 | 100 to 1000 | < 100
4 | Cn1cnc(S(=O)(=O)n2c(-c3cccs3)c(-c3ccsc3C#N)c3ccccc32)c1 [1/28] | 1000 to 10000 | 100 to 1000 | < 100
5 | COc1ccc2c(c1)c(-c1ccsc1C#N)c(-c1cccs1)n2S(=O)(=O)c1ccc(Cl)cc1 [1/39] | > 10000 | 1000 to 10000 | 
6 | COc1ccc2c(-c3ccsc3C#N)c(-c3cccs3)n(S(=O)(=O)c3ccc(Cl)cc3)c2c1 [1/40] | 1000 to 10000 | 100 to 1000 | < 100
7 | N#Cc1sccc1-c1c(-c2ccccc2)n(S(=O)(=O)c2cccnc2)c2ccccc12 [1/41] | 1000 to 10000 | 100 to 1000 | < 100
8 | Cc1ncc(S(=O)(=O)n2c(-c3ccccc3)c(-c3ccsc3C#N)c3ccccc32)s1 [1/42] | 1000 to 10000 | < 100 | < 100
9 | N#Cc1sccc1-c1c(-c2cccc(N3CC(C(=O)O)C3)c2)n(S(=O)(=O)c2ccccc2)c2ccc(F)cc12 [3/9] | 1000 to 10000 | 100 to 1000 | < 100
10 | Cc1ccc(S(=O)(=O)n2c(-c3ccc(CC(C)(C)C(=O)O)s3)c(-c3ccsc3C#N)c3ccccc32)cc1 [3/16] | 1000 to 10000 | 100 to 1000 | 100 to 1000
11 | Cc1ccc(S(=O)(=O)n2c(-c3cc(C4CC4C(=O)O)cs3)c(-c3ccsc3C#N)c3ccccc32)cc1 (centres unmarked) [3/17] | 1000 to 10000 | 100 to 1000 | < 100
12 | Cc1ccc(S(=O)(=O)n2c(-c3cccc(/C=C/C(=O)O)c3)c(-c3ccsc3C#N)c3ccccc32)cc1 [3/18] | 1000 to 10000 | 100 to 1000 | < 100
13 | Cc1ccc(S(=O)(=O)n2c(-c3ccc(/C=C/C(=O)O)s3)c(-c3ccsc3C#N)c3ccccc32)cc1 [3/19] | 1000 to 10000 | 100 to 1000 | 100 to 1000
14 | Cc1ccc(S(=O)(=O)n2c(-c3cccc(C(C)(C)C(=O)O)c3)c(-c3ccsc3C#N)c3ccccc32)cc1 [3/20] | 1000 to 10000 | 100 to 1000 | < 100
15 | N#Cc1sccc1-c1c(-c2cccc(OCC(=O)O)c2)n(S(=O)(=O)c2ccc(Cl)cc2)c2ccccc12 [3/51] | 1000 to 10000 | 100 to 1000 | 100 to 1000
16 | N#Cc1sccc1-c1c(-c2cccs2)n(S(=O)(=O)c2ccc(Cl)cc2)c2cc(O)ccc12 [13/1] | 1000 to 10000 | < 100 | < 100
17 | N#Cc1sccc1-c1c(-c2cccs2)n(S(=O)(=O)c2ccc(Cl)cc2)c2ccc(OCCCC(=O)O)cc12 [15/1] | 1000 to 10000 | 100 to 1000 | 100 to 1000

Row | SMILES | EC50 [1] [nM] | EC50 [2] [nM] | EC50 [3] [nM]
18 | N#Cc1sccc1-c1c(-c2cccs2)n(S(=O)(=O)c2ccc(Cl)cc2)c2ccc(OCCCCC(=O)O)cc12 [15/2] | > 10000 | 100 to 1000 | 100 to 1000
19 | N#Cc1sccc1-c1c(-c2cccs2)n(S(=O)(=O)c2ccc(Cl)cc2)c2cc(OCCCC(=O)O)ccc12 [15/4] | 1000 to 10000 | 100 to 1000 | < 100
20 | N#Cc1sccc1-c1c(-c2cccs2)n(S(=O)(=O)c2ccc(Cl)cc2)c2cc(OCCCCC(=O)O)ccc12 [15/5] | 1000 to 10000 | < 100 | < 100
21 | N#Cc1ccncc1-c1c(-c2cccs2)n(S(=O)(=O)c2ccc(Cl)cc2)c2ccccc12 [20/2] | 1000 to 10000 | 100 to 1000 | < 100
22 | O=S(=O)(c1ccc(Cl)cc1)n1c(-c2cccs2)c(-c2ccsc2C(F)F)c2ccccc21 [20/3] | 100 to 1000 | < 100 | < 100
23 | N#Cc1cscc1-c1c(-c2cccs2)n(S(=O)(=O)c2ccc(Cl)cc2)c2ccccc12 [20/4] | 1000 to 10000 | < 100 | < 100
24 | CS(=O)(=O)c1ccccc1-c1c(-c2cccs2)n(S(=O)(=O)c2ccc(Cl)cc2)c2ccccc12 [20/5] | 1000 to 10000 | 100 to 1000 | 100 to 1000
25 | N#Cc1cc(F)ccc1-c1c(-c2cccs2)n(S(=O)(=O)c2ccc(Cl)cc2)c2ccccc12 [20/6] | 100 to 1000 | 100 to 1000 | < 100
26 | N#Cc1nccnc1-c1c(-c2cccs2)n(S(=O)(=O)c2ccc(Cl)cc2)c2ccccc12 [20/7] | 1000 to 10000 | 100 to 1000 | < 100
27 | N#Cc1sccc1-c1c(-c2cccs2)n(S(=O)(=O)c2ccc(F)cc2)c2ccccc12 [20/11] | 100 to 1000 | < 100 | < 100
28 | N#Cc1sccc1-c1c(-c2cccs2)n(S(=O)(=O)c2ccc(F)cc2F)c2ccccc12 [20/12] | 1000 to 10000 | < 100 | < 100
29 | N#Cc1sccc1-c1c(-c2cccs2)n(S(=O)(=O)c2ccc(Cl)cc2)c2ccccc12 [20/13] | 100 to 1000 | < 100 | < 100
30 | COc1ccc(S(=O)(=O)n2c(-c3ccccc3)c(C3=C(C#N)CCCC3)c3ccccc32)cc1 [20/16] | 1000 to 10000 | 100 to 1000 | 100 to 1000
31 | COc1ccc(S(=O)(=O)n2c(-c3ccccc3)c(-c3c(C#N)sc4ccccc34)c3ccccc32)cc1 [20/18] |  | 100 to 1000 | < 100
32 | COc1ccc(S(=O)(=O)n2c(-c3ccccc3)c(C3=C(C#N)c4ccccc4CC3)c3ccccc32)cc1 [20/19] | > 10000 | 100 to 1000 | 100 to 1000
33 | Cc1ccc(S(=O)(=O)n2c(-c3cccc(-c4cncc(C(C)(C)C(=O)O)c4)c3)c(-c3ccsc3C#N)c3ccccc32)cc1 [30/3] |  | 100 to 1000 | 100 to 1000
34 | Cc1ccc(S(=O)(=O)n2c(-c3cccc(-c4cccc(C(=O)NS(C)(=O)=O)c4)c3)c(-c3ccsc3C#N)c3ccccc32)cc1 [Example 32, 3′-(3-(2-Cyanothiophen-3-yl)-1-tosyl-1H-indol-2-yl)-N-(methylsulfonyl)-[1,1′-biphenyl]-3-carboxamide] | 100 to 1000 |  | 100 to 1000
